Experimental data reported in patent publication US6706663B2, “Herbicidal 3-heterocyclic substituted benzisothiazole and benzisoxazole compounds” (Wyeth, priority 2000, dated 2004).

Legend:
[1] = system: ECHCG (Echinochloa crus-galli); experiment: Postemergence herbicidal evaluation; format: in vivo, (L.) Beau; details: for ECHCG herbicidal rating: postemergence
How it was run: (§1)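 Visual 0–9 injury scores versus control plants, covering stand, vigour, malformation, size, chlorosis and general appearance, taken four to five weeks post-spray and averaged over replicate tests. Plants were sprayed at roughly two weeks old and held on greenhouse benches.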

[2] = system: GLXMAW (Soybean, Williams); experiment: Postemergence herbicidal evaluation; format: in vivo, Glycine max, (L.) Merr. cv Williams; details: for GLXMAW herbicidal rating: postemergence
How it was run: as §1

[3] = system: MOOVA (Monochoria vaginalis); experiment: Flooded paddy, preemergence weed control; format: in vivo, Presl.; details: rated 3-4 weeks after treatment, 0-9 rating scale
How it was run: (§2)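 Seeds or propagating organs were sown in the top 0.5 cm of silt loam soil, flooded, and the water kept 1.5 to 3 cm above the soil surface throughout. Plants were grown in the greenhouse and rated visually on a 0-9 scale against a control.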

[4] = system: SETVI (Setaria viridis); experiment: Postemergence herbicidal evaluation; format: in vivo, (L.) Beau; details: for SETVI herbicidal rating: postemergence
How it was run: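 Ratings use a 0-9 visual scale covering stand, vigor, malformation, size, chlorosis and appearance versus a control, scored 4-5 weeks post-spray. Roughly two-week-old seedlings received about 0.0040-1.000 kg/ha active, applied in 50/50 acetone/water with 0.5% TWEEN 20. Multiple tests per compound were averaged.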

[5] = system: CYPSE (Cyperus serotinus); experiment: Flooded paddy, preemergence weed control; format: in vivo, Rottb.; details: rated 3-4 weeks after treatment, 0-9 rating scale
How it was run: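 Seeds or propagules were planted 0.5 cm deep in silt loam and flooded to 1.5–3 cm. Compounds in 50/50 v/v aqueous/acetone were pipetted into the flood water at about 0.0080 to 0.1250 kg/ha. After 3–4 weeks in the greenhouse, effect was rated visually on a 0–9 scale versus untreated control.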

[6] = system: ZEAMX (Corn, Field); experiment: Postemergence herbicidal evaluation; format: in vivo, Zea mays, L.; details: for ZEAMX herbicidal rating: postemergence
How it was run: as §1

[7] = system: ECHCG (Echinochloa crus-galli); experiment: Preemergence herbicidal evaluation; format: in vivo, (L.) Beau; details: preemergence, rated 4-5 weeks after treatment
How it was run: (§3)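 Rating 0–9, visual, vs control; 4–5 wk after spraying seeded cups with compound in aq. acetone; conventional greenhouse care.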

[8] = system: SETVI (Setaria viridis); experiment: Preemergence herbicidal evaluation; format: in vivo, (L.) Beau; details: preemergence, rated 4-5 weeks after treatment
How it was run: as §3

[9] = system: ORYSAT (Rice, Tebonnet); experiment: Postemergence herbicidal evaluation; format: in vivo, Oryza sativa, (L.) Tebonnet; details: for ORYSAT herbicidal rating: postemergence
How it was run: as §1

[10] = system: CHEAL (Chenopodium album); experiment: Preemergence herbicidal evaluation; format: in vivo, L.; details: preemergence, rated 4-5 weeks after treatment
How it was run: as §3

[11] = system: CASOB (Cassia obtusifolia); experiment: Preemergence herbicidal evaluation; format: in vivo, L.; details: preemergence, rated 4-5 weeks after treatment
How it was run: as §3

[12] = system: AMBEL (Ambrosia artemisifolia); experiment: Preemergence herbicidal evaluation; format: in vivo, L.; details: preemergence, rated 4-5 weeks after treatment
How it was run: as §3

[13] = system: ORYSAT (Rice, Tebonnet); experiment: Preemergence herbicidal evaluation; format: in vivo, Oryza sativa, (L.) Tebonnet; details: preemergence, rated 4-5 weeks after treatment
[14] = system: ECHORC (Echinochloa oryzoides); experiment: Flooded paddy, preemergence weed control; format: in vivo, Echinochloa oryzoides (Ard.) Fritsch.; details: rated 3-4 weeks after treatment, 0-9 rating scale
How it was run: as §2

[15] = system: TRZAWR (Wheat, Winter, cv Riband); experiment: Preemergence herbicidal evaluation; format: in vivo, Triticum aestivum; details: preemergence, rated 4-5 weeks after treatment
How it was run: as §3

[16] = system: IPOHE (Ipomoea hederacea); experiment: Postemergence herbicidal evaluation; format: in vivo, (L.) Jacq.; details: for IPOHE herbicidal rating: postemergence
How it was run: as §1

[17] = system: ABUTH (Abutilon theophrasti); experiment: Preemergence herbicidal evaluation; format: in vivo, Medic.; details: preemergence, rated 4-5 weeks after treatment
[18] = system: TRZAWR (Wheat, Winter, cv Riband); experiment: Postemergence herbicidal evaluation; format: in vivo, Triticum aestivum; details: for TRZAWR herbicidal rating: postemergence
How it was run: as §1

[19] = system: GALAP (Galium aparine); experiment: Preemergence herbicidal evaluation; format: in vivo; details: preemergence, rated 4-5 weeks after treatment
How it was run: as §3

## Cc1csc(-c2nsc3ccc(-n4c(=O)cc(C(F)(F)F)n(C)c4=O)cc23)n1 [Compound 7, 1-methyl-3-[3-(4-methyl-2-thiazolyl)-1,2-benzisothiazol-5-yl]-6-(trifluoromethyl)uracil]
[1]; rate 0.0320 kg/ha
  Postemergence herbicidal rating, ECHCG: 0.0
[1]; rate 0.0620 kg/ha
  Postemergence herbicidal rating, ECHCG: 0.0
[1]; rate 0.1250 kg/ha
  Postemergence herbicidal rating, ECHCG: 0.0
[2]; rate 0.0320 kg/ha
  Postemergence herbicidal rating, GLXMAW: 5.0
[2]; rate 0.0620 kg/ha
  Postemergence herbicidal rating, GLXMAW: 5.0
[2]; rate 0.1250 kg/ha
  Postemergence herbicidal rating, GLXMAW: 5.5
[3]; rate 0.0080 kg/ha
  herbicidal rating, MOOVA: 9.0
[3]; rate 0.0320 kg/ha
  herbicidal rating, MOOVA: 9.0
[3]; rate 0.1250 kg/ha
  herbicidal rating, MOOVA: 9.0
[4]; rate 0.0320 kg/ha
  Postemergence herbicidal rating, SETVI: 0.0
[4]; rate 0.0620 kg/ha
  Postemergence herbicidal rating, SETVI: 0.0
[4]; rate 0.1250 kg/ha
  Postemergence herbicidal rating, SETVI: 2.0
[5]; rate 0.0080 kg/ha
  herbicidal rating, CYPSE: 0.0
[5]; rate 0.0320 kg/ha
  herbicidal rating, CYPSE: 0.0
[5]; rate 0.1250 kg/ha
  herbicidal rating, CYPSE: 0.0
[6]; rate 0.0320 kg/ha
  Postemergence herbicidal rating, ZEAMX: 5.0
[6]; rate 0.0620 kg/ha
  Postemergence herbicidal rating, ZEAMX: 6.0
[6]; rate 0.1250 kg/ha
  Postemergence herbicidal rating, ZEAMX: 7.5
[7]; Rate 0.0620 kg/ha
  ECHCG preemergence herbicidal rating: 0.0
[7]; Rate 0.1250 kg/ha
  ECHCG preemergence herbicidal rating: 3.0
[7]; Rate 0.2500 kg/ha
  ECHCG preemergence herbicidal rating: 3.0
[8]; Rate 0.0620 kg/ha
  SETVI preemergence herbicidal rating: 9.0
[8]; Rate 0.1250 kg/ha
  SETVI preemergence herbicidal rating: 9.0
[8]; Rate 0.2500 kg/ha
  SETVI preemergence herbicidal rating: 9.0
[9]; rate 0.0320 kg/ha
  Postemergence herbicidal rating, ORYSAT: 4.5
[9]; rate 0.0620 kg/ha
  Postemergence herbicidal rating, ORYSAT: 5.0
[9]; rate 0.1250 kg/ha
  Postemergence herbicidal rating, ORYSAT: 7.0
[10]; Rate 0.0620 kg/ha
  CHEAL preemergence herbicidal rating: 9.0
[10]; Rate 0.1250 kg/ha
  CHEAL preemergence herbicidal rating: 9.0
[10]; Rate 0.2500 kg/ha
  CHEAL preemergence herbicidal rating: 9.0
[11]; Rate 0.0620 kg/ha
  CASOB preemergence herbicidal rating: 0.0
[11]; Rate 0.1250 kg/ha
  CASOB preemergence herbicidal rating: 3.0
[11]; Rate 0.2500 kg/ha
  CASOB preemergence herbicidal rating: 9.0
[12]; Rate 0.0620 kg/ha
  AMBEL preemergence herbicidal rating: 0.0
[12]; Rate 0.1250 kg/ha
  AMBEL preemergence herbicidal rating: 0.0
[12]; Rate 0.2500 kg/ha
  AMBEL preemergence herbicidal rating: 0.0
[13]; Rate 0.0620 kg/ha
  ORYSAT preemergence herbicidal rating: 0.0
[13]; Rate 0.1250 kg/ha
  ORYSAT preemergence herbicidal rating: 0.0
[13]; Rate 0.2500 kg/ha
  ORYSAT preemergence herbicidal rating: 0.0
[14]; rate 0.0080 kg/ha
  herbicidal rating, ECHORC: 0.0
[14]; rate 0.0320 kg/ha
  herbicidal rating, ECHORC: 5.0
[14]; rate 0.1250 kg/ha
  herbicidal rating, ECHORC: 9.0
[15]; Rate 0.0620 kg/ha
  TRZAWR preemergence herbicidal rating: 0.0
[15]; Rate 0.1250 kg/ha
  TRZAWR preemergence herbicidal rating: 2.0
[15]; Rate 0.2500 kg/ha
  TRZAWR preemergence herbicidal rating: 2.0
[16]; rate 0.0320 kg/ha
  Postemergence herbicidal rating, IPOHE: 2.0
[16]; rate 0.0620 kg/ha
  Postemergence herbicidal rating, IPOHE: 9.0
[16]; rate 0.1250 kg/ha
  Postemergence herbicidal rating, IPOHE: 9.0
[17]; Rate 0.0620 kg/ha
  ABUTH preemergence herbicidal rating: 9.0
[17]; Rate 0.1250 kg/ha
  ABUTH preemergence herbicidal rating: 9.0
[17]; Rate 0.2500 kg/ha
  ABUTH preemergence herbicidal rating: 9.0
[18]; rate 0.0320 kg/ha
  Postemergence herbicidal rating, TRZAWR: 4.5
[18]; rate 0.0620 kg/ha
  Postemergence herbicidal rating, TRZAWR: 5.5
[18]; rate 0.1250 kg/ha
  Postemergence herbicidal rating, TRZAWR: 6.0

## Cn1c(C(F)(F)F)cc(=O)n(-c2ccc3snc(-c4sccc4CO)c3c2)c1=O [Compound 85, 3-[3-[3-(hydroxymethyl)-2-thienyl]-1,2-benzisothiazol-5-yl]-1-methyl-6-(trifluoromethyl)uracil]
[1]; rate 0.0320 kg/ha
  ECHCG herbicidal rating: 0.0
[1]; rate 0.0620 kg/ha
  ECHCG herbicidal rating: 2.0
[2]; rate 0.0320 kg/ha
  GLXMAW herbicidal rating: 3.5
[2]; rate 0.0620 kg/ha
  GLXMAW herbicidal rating: 4.0
[3]; rate 0.0080 kg/ha
  MOOVA herbicidal rating: 9.0
[3]; rate 0.0320 kg/ha
  MOOVA herbicidal rating: 7.0
[3]; rate 0.1250 kg/ha
  herbicidal rating, MOOVA: 9.0
[4]; rate 0.0320 kg/ha
  SETVI herbicidal rating: 5.0
[4]; rate 0.0620 kg/ha
  SETVI herbicidal rating: 9.0
[6]; rate 0.0320 kg/ha
  ZEAMX herbicidal rating: 4.5
[6]; rate 0.0620 kg/ha
  ZEAMX herbicidal rating: 5.0
[7]; rate 0.0620 kg/ha
  Preemergence herbicidal rating ECHCG: 0.0
[7]; rate 0.1250 kg/ha
  Preemergence herbicidal rating ECHCG: 3.0
[7]; rate 0.2500 kg/ha
  Preemergence herbicidal rating ECHCG: 4.0
[8]; rate 0.0620 kg/ha
  Preemergence herbicidal rating SETVI: 4.0
[8]; rate 0.1250 kg/ha
  Preemergence herbicidal rating SETVI: 9.0
[8]; rate 0.2500 kg/ha
  Preemergence herbicidal rating SETVI: 7.0
[9]; rate 0.0320 kg/ha
  ORYSAT herbicidal rating: 3.5
[9]; rate 0.0620 kg/ha
  ORYSAT herbicidal rating: 4.5
[10]; rate 0.0620 kg/ha
  Preemergence herbicidal rating CHEAL: 9.0
[10]; rate 0.1250 kg/ha
  Preemergence herbicidal rating CHEAL: 9.0
[10]; rate 0.2500 kg/ha
  Preemergence herbicidal rating CHEAL: 9.0
[11]; rate 0.0620 kg/ha
  Preemergence herbicidal rating CASOB: 0.0
[11]; rate 0.1250 kg/ha
  Preemergence herbicidal rating CASOB: 3.0
[11]; rate 0.2500 kg/ha
  Preemergence herbicidal rating CASOB: 5.0
[12]; rate 0.0620 kg/ha
  Preemergence herbicidal rating AMBEL: 8.0
[12]; rate 0.1250 kg/ha
  Preemergence herbicidal rating AMBEL: 9.0
[12]; rate 0.2500 kg/ha
  Preemergence herbicidal rating AMBEL: 9.0
[13]; rate 0.0620 kg/ha
  Preemergence herbicidal rating ORYSAT: 2.0
[13]; rate 0.1250 kg/ha
  Preemergence herbicidal rating ORYSAT: 6.0
[13]; rate 0.2500 kg/ha
  Preemergence herbicidal rating ORYSAT: 7.0
[14]; rate 0.0080 kg/ha
  ECHORC herbicidal rating: 0.0
[14]; rate 0.0320 kg/ha
  ECHORC herbicidal rating: 5.0
[14]; rate 0.1250 kg/ha
  herbicidal rating, ECHORC: 8.0
[15]; rate 0.0620 kg/ha
  Preemergence herbicidal rating TRZAWR: 0.0
[15]; rate 0.1250 kg/ha
  Preemergence herbicidal rating TRZAWR: 0.0
[15]; rate 0.2500 kg/ha
  Preemergence herbicidal rating TRZAWR: 3.0
[16]; rate 0.0320 kg/ha
  IPOHE herbicidal rating: 9.0
[16]; rate 0.0620 kg/ha
  IPOHE herbicidal rating: 9.0
[19]; rate 0.0620 kg/ha
  Preemergence herbicidal rating GALAP: 4.0
[19]; rate 0.1250 kg/ha
  Preemergence herbicidal rating GALAP: 6.0
[19]; rate 0.2500 kg/ha
  Preemergence herbicidal rating GALAP: 9.0
[17]; rate 0.0620 kg/ha
  Preemergence herbicidal rating ABUTH: 9.0
[17]; rate 0.1250 kg/ha
  Preemergence herbicidal rating ABUTH: 9.0
[17]; rate 0.2500 kg/ha
  Preemergence herbicidal rating ABUTH: 9.0
[18]; rate 0.0320 kg/ha
  TRZAWR herbicidal rating: 2.0
[18]; rate 0.0620 kg/ha
  TRZAWR herbicidal rating: 3.5
